Numbers after ± are expanded uncertainties.
Tests used:
[1] = 101.3 kPa, Liquid, Sing-around technique in a fixed-path interferometer
[2] = xn = mol fraction of the nth substance listed; conditions: 283.15 K; 101.3 kPa; Liquid; fixed-path interferometer; x2 = 0

| SMILES | speed of sound ([1]; 283.15 K) [m/s] | speed of sound ([1]; 288.15 K) [m/s] | speed of sound ([1]; 293.15 K) [m/s] | speed of sound ([1]; 298.15 K) [m/s] | speed of sound ([1]; 303.15 K) [m/s] | speed of sound [2] [m/s] |
| --- | --- | --- | --- | --- | --- | --- |
| CCOCCCN [3-ethoxy-1-propanamine] | 1386.4 ± 1.6 | 1364.2 ± 1.6 | 1342 ± 1.6 | 1321.2 ± 1.6 | 1300.4 ± 1.6 |  |
| O [water] | 1447.3 ± 1.3 |  |  |  |  |  |
| O [water] + CCOCCCN |  |  |  |  |  | 1447.3 ± 1.3 |
